Reference: patent US20210378985A1, “METHOD AND COMPOUND FOR THE TREATMENT OF HEPATITIS C” (priority 2020, published 2021)

Key:
HIV-1 [1] = assay: Cell-based time course study (mode of action); conditions: drug addition at various time points
From the text: The time course study may be an important tool for the determination of viral kinetics and drug mode of action. The dynamics of drug-virus interaction, competitive or non-competitive, kinetics provides a dose response curve from which a broad lead mechanism of action can be drawn. The dynamics of the interactions relate to the viral kinetic of infection and drug addition at various time points.

gamma interferon = assay: Gamma interferon production stimulated by 90I; type: cell-based; conditions: versus positive control PMA-Ionomycin combination
HIV-1 [2] = assay: Co-cultivation of HIV-1 infected cells with uninfected target cells; type: cell-based
From the text: Viral pathogenesis in co-cultivation of infected cells with uninfected target cells presents a complex system with several target sites (attachment, fusion, transcription, processing, packaging and budding).
In many documented antiretroviral studies, the co-culture system is conventionally used to isolate the virus as well as to study cell-to-cell transmission or to determine if a given compound blocks cell fusion.

HCV subgenomic replicon = conditions: at both mRNA and protein level; cited from earlier work
[3] = system: core protein in Huh 7 cells; conditions: cited from earlier work

Structure (SMILES): O=C(OCCOCCOC(=O)c1ccccc1)c1ccccc1 [Compound 90I, diethylene glycol dibenzoate]
- mode of action (early/late) (HIV-1 [1]): works both early and late
- amount of gamma interferon produced (gamma interferon): equivalent to that of the positive control
- syncytium formation (HIV-1 [2]): drastic drop of syncytium formation
- cell viability (HIV-1 [2]; exponential cell growth dynamics): greater than ninety percent

Structure (SMILES): C[C@@H]1CC[C@@]2(OC1)O[C@H]1C[C@H]3[C@@H]4CC=C5C[C@@H](O)CC[C@]5(C)[C@H]4CC[C@]3(C)[C@H]1[C@@H]2C [Diosgenin]
- replication of HCV subgenomic replicon (HCV subgenomic replicon): effectively blocked the replication of the HCV subgenomic replicon

Structure (SMILES): O=C1C[C@@H](c2ccc(O)cc2)Oc2cc(O)cc(O)c21 [Naringenin]
- activity of core protein ([3]; Huh 7 cells): suppressed the activity of core protein
- assembly of HCV particles [3]: effectively blocked the assembly of HCV particles
